From patent US10730849B2, “Benzo[b]thiophene compounds as STING agonists” (MERCK SHARP & DOHME CORP., priority 2016, dated 2020)

Assays:
THP1 cells = assay: IFN-β secretion in THP1 cell culture (5 h); format: cell-based, human; conditions: relative to 30 uM cGAMP
Description: The ability of compounds to stimulate the secretion of interferon-beta from THP1 cells was measured using a human IFN-3 AlphaLISA kit (Perkin Elmer, Cat. No. AL265F). The basic protocol is as follows:
The cell viability and count was ascertained using a Beckman Coulter V-Cell XR cell counter. The cells suspension was centrifuged at 200×g for 5 min at RT. Cells were resuspended to a density of 0.8×10^6/mL in 37° C. assay medium. Subsequent liquid transfers were performed using either a Matrix electronic multichannel pipette or an Agilent Bravo Automated Liquid Handling Platform.
The assay was started by dispensing 40 μL of the previously prepared cell suspension into the wells of the plate containing compounds. After 5 h incubation at 37° C., 5% CO2 in a humidified atmosphere, the plate of cells and compounds was centrifuged at 200×g for 5 min at RT. […] To these supernatant-containing wells was added 10 μL of 5× Anti-Analyte Acceptor beads ([…] of AlphaLISA HiBlock Buffer) and incubated for 30 min at RT while shaking on an orbital plate shaker. To each well was added 10 μL of 5× Biotinylated Antibody Anti-analyte (5 nM in AlphaLISA HiBlock Buffer) and incubated on an orbital plate shaker for 60 min at RT or overnight at 4° C. To each well was added 25 μL of 2× SA-Donor beads ([…] in AlphaLISA HiBlock Buffer) and incubated for 30-45 min at RT in the dark while shaking on an orbital plate shaker. The plate was then read on a Perkin Elmer Envision (λex=680 nm, […]). The percent effect of the AlphaLISA signal at each compound concentration was calculated based on 30 uM cGAMP positive controls and 0.3% DMSO negative controls. The plot of percent effect versus the log of compound concentration was fit with a 4-parameter concentration response equation to calculate EC50 values.
Compounds of the disclosure were evaluated for IFN-3 secretion in THP1 cell culture as described above.

full-length HAQ STING = full-length HAQ STING (Homo sapiens (Human), UniProt Q86WV6, G230A/H232R/R293Q/R71H); assay: 3H-cGAMP filtration binding assay (HAQ STING); conditions: competition with tritiated cGAMP, HAQ STING membrane
Sequence of full-length HAQ STING (Q86WV6 other isoform, or with tags, fused parts or gaps, stated change not applied): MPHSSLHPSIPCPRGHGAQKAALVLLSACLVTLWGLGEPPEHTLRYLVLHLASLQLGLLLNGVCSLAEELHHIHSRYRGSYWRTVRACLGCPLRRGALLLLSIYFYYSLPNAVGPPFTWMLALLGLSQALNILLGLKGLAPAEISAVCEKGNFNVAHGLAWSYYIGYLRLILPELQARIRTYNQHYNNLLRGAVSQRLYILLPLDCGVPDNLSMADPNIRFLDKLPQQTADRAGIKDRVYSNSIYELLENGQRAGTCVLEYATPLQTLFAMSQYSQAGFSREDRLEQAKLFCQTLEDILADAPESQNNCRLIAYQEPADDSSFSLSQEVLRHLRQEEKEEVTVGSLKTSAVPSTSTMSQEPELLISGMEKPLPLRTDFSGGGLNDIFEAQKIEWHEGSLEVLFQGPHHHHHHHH
Source text: The ability of compounds to bind STING is quantified by the ability to compete with tritiated cGAMP ligand for human STING receptor membrane using a radioactive filter-binding assay. The binding assay employs STING receptor obtained from Hi-Five cell membranes overexpressing full-length HAQ STING prepared in-house and tritiated cGAMP ligand also purified in-house.
(§1) The ability of compounds to bind STING is quantified by their ability to compete with tritiated cGAMP ligand for human STING receptor membrane using a radioactive filter-binding assay. The binding assay employs STING receptor obtained from Trichoplusia ni cell membranes (T. ni; Expression Systems, cat #94-002F, www.exressionsystems.com) overexpressing full-length HAQ STING and tritiated cGAMP ligand.
The basic HAQ STING filtration assay protocol is as follows:
Compound and membrane then preincubated for 60 min at RT to allow compound binding to equilibrate. Following equilibration, 8 nM of [^3H]c-GAMP ligand was prepared by diluting into assay buffer, and 50 uL of this working stock was then manually added to each well of the assay plate. […] The filter plates were then dried at 55° C. for 30 min using a pressurized oven before 30 uL of ULTIMA GOLD F scintillate was added to each well. Tritium levels for each reaction well were then measured using a PerkinElmer TopCount plate reader.
(§2) After normalization to controls, the percent activity for each compound concentration was calculated by measuring the amount of remaining radioactivity. The plot of percent activity versus the log of compound concentration was fit with a 4-parameter dose response equation to calculate EC50 values.

full-length WT STING = full-length WT STING (Homo sapiens (Human), UniProt Q86WV6, H232R); assay: 3H-cGAMP filtration binding assay (WT STING); conditions: for EC50: competition with tritiated cGAMP, WT STING membrane; for inhibition at 20 µM: WT STING, compound at 20 uM
Sequence of full-length WT STING (Q86WV6 other isoform, or with tags, fused parts or gaps H232R (already in the parent)): as the sequence (Q86WV6 other isoform, or with tags, fused parts or gaps, stated change not applied) above, with H71R, A230G, Q293R counted along it
Source text: as §1, with “www.expressionsystems.com)” for “www.exressionsystems.com)”, “WT” for “HAQ”
The basic WT STING filtration assay protocol is as follows:
The filter plates were then dried at 55° C. for 30 min using a pressurized VWR oven before 30 uL of ULTIMA GOLD F scintillate was added to each well. Tritium levels for each reaction well were then measured using a PerkinElmer TopCount plate reader.
as §2

EC50 (full-length HAQ STING) [µM] | EC50 (full-length WT STING) [µM] | inhibition at 20 µM (full-length WT STING) [%] | Compound | % Effect at 30 μM relative to 2’3’-cGAMP (THP1 cells) [%]
1.14 | – | – | COc1cc2sc(C(=O)[C@@H]3C[C@@H]3C(=O)O)cc2cc1Br (single isomer, unassigned) [Example 5, 2-(5-bromo-6-methoxybenzo[b]thiophene-2-carbonyl)cyclopropane-1-carboxylic acid] | 77
0.703 | – | – | COc1cc2sc(C(=O)[C@H]3C[C@H]3C(=O)O)cc2cc1Br (single isomer, unassigned) [Example 6, 2-(5-bromo-6-methoxybenzo[b]thiophene-2-carbonyl)cyclopropane-1-carboxylic acid] | 130
3.41 | 5.17 | – | CCC(CC(=O)c1cc2cc(OC)c(OC)cc2s1)C(=O)O (centres unmarked) [Example 1, 4-(5,6-dimethoxybenzo[b]thiophen-2-yl)-2-ethyl-4-oxobutanoic acid] | 144
9.59 | 11.2 | – | COc1cc2cc(C(=O)CC(C(=O)O)C(C)C)sc2cc1OC (centres unmarked) [Example 2, 4-(5,6-Dimethoxybenzo[b]thiophen-2-yl)-2-isopropyl-4-oxobutanoic acid] | 149
10.6 | – | 41 | COc1cc2cc(C(=O)CC(C(=O)O)C3CC3)sc2cc1OC (centres unmarked) [Example 3, 2-Cyclopropyl-4-(5,6-dimethoxybenzo[b]thiophen-2-yl)-4-oxobutanoic acid] | 59
1.9 | 1.14 | – | COc1cc2cc(C(=O)C3CC3C(=O)O)sc2cc1OC (centres unmarked) [Example 4, 2-(5,6-Dimethoxybenzo[b]thiophene-2-carbonyl)cyclopropane carboxylic acid] | 34
9.34 | – | 20 | COc1cc2sc(C(=O)CCC(=O)O)cc2cc1Cl [Example 7, 4-(5-Chloro-6-methoxybenzo[b]thiophen-2-yl)-4-oxobutanoic acid] | 290
6.77 | 15.5 | – | C=Cc1cc2sc(C(=O)CCC(=O)O)cc2cc1OC [Example 8, 4-(5-Methoxy-6-vinylbenzo[b]thiophen-2-yl)-4-oxobutanoic acid] | 260
2.58 | 10.9 | – | COc1cc2cc(C(=O)CCC(=O)O)sc2cc1Br [Example 9, 4-(6-Bromo-5-methoxybenzo[b]thiophen-2-yl)-4-oxobutanoic acid] | 298
14 | – | 31 | CNc1cc2cc(C(=O)CCC(=O)O)sc2cc1OC [Example 10, 4-(6-Methoxy-5-(methylamino)benzo[b]thiophen-2-yl)-4-oxobutanoic acid] | 182
2.73 | 3.87 | – | COc1cc2cc(C(=O)C[C@H](C)C(=O)O)sc2cc1OC [Example 11, (S)-4-(5,6-Dimethoxybenzo[b]thiophen-2-yl)-2-methyl-4-oxobutanoic acid] | 132
– | – | – | COc1cc2cc(C(=O)CCC(=O)OC(C)(C)C)sc2cc1OC [Example 12, tert-butyl 4-(5,6-dimethoxybenzo[b]thiophen-2-yl)-4-oxobutanoate] | 16
1.38 | 2.08 | – | COc1cc2sc(C(=O)C[C@H](C)C(=O)O)cc2c(F)c1OC [Example 13, (S)-4-(4-fluoro-5,6-dimethoxybenzo[b]thiophen-2-yl)-2-methyl-4-oxobutanoic acid] | 228
– | – | – | COc1cc2sc(C(=O)CCC(=O)O)cc2c(F)c1OC [Example 14, 4-(4-fluoro-5,6-dimethoxybenzo[b]thiophen-2-yl)-4-oxobutanoic acid] | 394
0.894 | 0.894 | – | COc1cc2cc(C(=O)C[C@H](C)C(=O)O)sc2cc1Br [Example 15, (S)-4-(6-bromo-5-methoxybenzo[b]thiophen-2-yl)-2-methyl-4-oxobutanoic acid] | 115
1.72 | 2.48 | – | COc1cc2cc(C(=O)CCC(=O)O)sc2cc1OC [Example 16, 4-(5,6-dimethoxybenzo[b]thiophen-2-yl)-4-oxobutanoic acid] | 129
5.61 | – | – | CNc1cc2sc(C(=O)C[C@H](C)C(=O)O)cc2cc1OC [Example 37, (S)-4-(5-methoxy-6-(methylamino)benzo[b]thiophen-2-yl)-2-methyl-4-oxobutanoic acid] | 42
1.93 | – | – | COc1cc2cc(C(=O)C[C@H](C)C(=O)O)sc2cc1SC [Example 38, (S)-4-(5-methoxy-6-(methylthio)benzo[b]thiophen-2-yl)-2-methyl-4-oxobutanoic acid] | 154
0.759 | – | – | COc1cc2cc(C(=O)C[C@H](C)C(=O)O[C@H]3CSSC[C@@H]3O)sc2cc1OC [Example 42, (S)-(4R,5R)-5-hydroxy-1,2-dithian-4-yl 4-(5,6-dimethoxybenzo[b]thiophen-2-yl)-2-methyl-4-oxobutanoate] | 6
15.7 | – | – | CCCc1cc2sc(C(=O)C[C@H](C)C(=O)O)cc2cc1OC [Example 44, (2S)-4-(5-methoxy-6-propyl-1-benzothiophen-2-yl)-2-methyl-4-oxobutanoic acid] | 20
14.7 | – | – | COc1cc2cc(C(=O)CCC(=O)O)sc2cc1CCF [Example 45, 4-[6-(2-fluoroethyl)-5-methoxy-1-benzothiophen-2-yl]-4-oxobutanoic acid] | 104
5.06 | – | – | CCCc1cc2cc(C(=O)C[C@H](C)C(=O)O)sc2cc1OC [Example 47, (2S)-4-(6-methoxy-5-propyl-1-benzothiophen-2-yl)-2-methyl-4-oxobutanoic acid] | 90
2.72 | – | – | CCCC(CC(=O)c1cc2cc(OC)c(OC)cc2s1)C(=O)O (centres unmarked) [Example 49, 2-(2-(5,6-dimethoxybenzo[b]thiophen-2-yl)-2-oxoethyl)pentanoic acid] | 111
0.531 | – | – | COc1cc2sc(C(=O)C[C@H](C)C(=O)O)cc2c2nc(C)oc12 [Example 54, (S)-4-(4-methoxy-2-methylthieno[2′,3′:5,6]benzo[1,2-d]oxazol-7-yl)-2-methyl-4-oxobutanoic acid] | 66

Compound | EC50 (full-length HAQ STING) [µM] | EC50 (full-length WT STING) [µM] | inhibition at 20 µM (full-length WT STING) [%] | % Effect at 30 μM relative to 2’3’-cGAMP (THP1 cells) [%]
C=Cc1cc2cc(C(=O)[C@@H]3C[C@@H]3C(=O)O)sc2cc1OC [Example 39, (1S,2R)-2-(6-methoxy-5-vinylbenzo[b]thiophene-2-carbonyl)cyclopropane-1-carboxylic acid] | 1.15 | – | – | 193
COc1cc2sc(C(=O)C3CC3C(=O)O)cc2cc1SC (centres unmarked) [Example 40, 2-(6-methoxy-5-(methylthio)benzo[b]thiophene-2-carbonyl)cyclopropane-1-carboxylic acid] | 3.94 | – | – | 93
